Laboratory results taken from EP4556465A1, “NOVEL BICYCLIC PD-L1 INHIBITORS, PREPARATION METHODS THEREFOR AND MEDICINAL USES THEREOF” (priority 2022, dated 2024).

Columns and labels:
[1] = target: T1, hPD-1/hPD-L1 (Homo sapiens, UniProt Q9NZQ7); experiment: PD-1/PD-L1 binding assay kit (CISBIO), HTRF assay of PD-1/PD-L1 protein-protein interaction; conditions: for inhibitory activity of PD-1/PD-L1 protein-protein interaction compared with BMS-202: HTRF, comparison with BMS-202
T1 construct: purchased CISBIO
Experimental: Experimental objective: the activity of the compounds of formula (I) to inhibit the PD-1/PD-L1 interaction was tested by using a PD-1/PD-L1 binding assay kit (CISBIO).
Experimental principle: HTRF (Homogeneous Time-Resolved Fluorescence) is a technique used to detect substances to be tested in pure liquid phase systems. It primarily utilizes energy transfer of two fluorescent groups, which are divided into an energy donor europium (Eu^+) and an energy acceptor. When the donor is externally excited (e.g., a flash lamp or laser), the energy can be resonantly transferred to the acceptor if the donor is close enough to the acceptor, and the acceptor is excited at a specific wavelength. By using the HTRF technology, the assay enables simple and rapid characterization of compounds and antibody blockers in a high-throughput format. By using anti-Tag1 labeled with Eu^+ (Europium) (the HTRF energy donor) and anti-Tag2 labeled with XL665 (the HTRF energy acceptor), the interaction between PD-L1 and PD-1 can be detected. PD-L1 protein and PD-1 protein are labeled with Tag1 and Tag2, respectively, and Eu^+ and XL665 bind to PD-L1 and PD-1, respectively, through antibodies to form complexes. […] This specific signal is directly proportional to the degree of PD1/PD-L1 interaction.
Experimental materials: kit: PD-1/PD-L1 binding assay kits purchased from CISBIO; and 96-well plate: purchased from CISBIO.
Test instrument: Perkin Elmer, model: EnVision.
Test compounds: the compounds in formula (I).
Experimental procedure: PD-1/PD-L1 binding assay kits were used. […] The plates were sealed by using microplate sealers, centrifuging was performed at 1000 rpm for 1 min, and incubation was performed at room temperature for 15 min. The Anti-Tag-Eu^3+ and Anti-tag-XL665 which were diluted with Buffer were then mixed in equal volumes, then 10 µL of the mixed solution was added to each well, the sealed plates were centrifuged at 1000 rpm for 1 min, and incubation was performed at room temperature for 2 h. […] IC50 of the compounds was calculated by using Graphpad.

[2] = Acute toxicity test, single oral gavage; format: in vivo; conditions: both sexes, rat, in vivo, po, SD rats, read-out: maximum tolerated dose (MTD)
Experimental: • Animal species and number: SD rats; 6 rats in each group (half male and half female); Mode of administration: oral gavage; […]; • Administration frequency: administration once.
Side-cage observation on the day of administration (D1): frequency and time of observation: side-cage observation of acute toxicity reactions was performed for 4 h after administration of animals in each group, and detailed clinical observations were performed on animals with apparent abnormal manifestations. Mortality, morbidity, respiration, secretion, feces, and diet, water drinking, etc. were observed, and changes in body weight of rats during administration were recorded. Detailed clinical observations include, but are not limited to, behavioral activities, skin, hair, eyes, ears, noses, abdomens, external genitalia, anuses, limbs, feet, and breathing. The animals in each group were euthanized at the end of the observation period, and all animals were dissected and gross observed.

T1 sequence (Q9NZQ7 19-238 limits assumed): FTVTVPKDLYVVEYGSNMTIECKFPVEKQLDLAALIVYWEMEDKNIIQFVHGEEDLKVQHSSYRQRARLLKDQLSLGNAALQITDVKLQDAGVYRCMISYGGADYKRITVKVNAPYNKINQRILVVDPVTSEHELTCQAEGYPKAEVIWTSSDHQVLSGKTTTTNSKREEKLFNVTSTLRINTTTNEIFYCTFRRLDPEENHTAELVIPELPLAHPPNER

SMILES	IC50 [1] [nM]	inhibitory activity of PD-1/PD-L1 protein-protein interaction compared with BMS-202 [1]	MTD [2] [mg/kg]
OCCN1CCc2nc(OCc3cccc(-c4ccccc4)c3Cl)ccc2C1 [I-D-21, 2-(2-((2-chloro-[1,1'-biphenyl]-3-yl)methoxy)-7,8-dihydro-1,6-naphthyridin-6(5H)-yl)ethan-1-ol]	31.1	superior to that of the compound BMS-202	
Cc1ccccc1-c1cccc(COc2ccc3c(n2)CCN(CCO)C3)c1C [I-D-15, 2-(2-((2,2'-dimethyl-[1,1'-biphenyl]-3-yl)methoxy)-7,8-dihydro-1,6-naphthyridin-6(5H)-yl)ethan-1-ol]	70 to 1000		
Cc1ccccc1-c1cccc(COc2ccc3c(n2)CCN(CCO)C3)c1Cl [I-D-19, 2-(2-((2-chloro-2'-methyl-[1,1'-biphenyl]-3-yl)methoxy)-7,8-dihydro-1,6-naphthyridin-6(5H)-yl)ethan-1-ol]	20.1	superior to that of the compound BMS-202	
O=CCN1CCc2nc(OCc3cccc(-c4ccccc4F)c3Cl)ccc2C1 [I-D-28, 2-(2-((2-chloro-2'-fluoro-[1,1'-biphenyl]-3-yl)methoxy)-7,8-dihydro-1,6-naphthyridin-6(5H)-yl)acetaldehyde]	24.2	superior to that of the compound BMS-202	
Cc1c(COc2ccc3c(n2)CCN(CC(=O)O)C3)cccc1-c1ccccc1F [I-D-13, 2-(2-((2'-fluoro-2-methyl-[1,1'-biphenyl]-3-yl)methoxy)-7,8-dihydro-1,6-naphthyridin-6(5H)-yl)acetic acid]	23	superior to that of the compound BMS-202	
Cc1c(-c2ccc3c(c2)CN(CCO)C3)cccc1-c1ccccc1F [I-A-9, 2-(5-(2'-Fluoro-2-methyl-[1,1'-biphenyl]-3-yl)isoindolin-2-yl)ethan-1-ol]	11	superior to that of the compound BMS-202	
O=C(O)CN1CCc2nc(OCc3cccc(-c4ccccc4F)c3)ccc2C1 [I-D-30, 2-(2-((2'-fluoro-[1,1'-biphenyl]-3-yl)methoxy)-7,8-dihydro-1,6-naphthyridin-6(5H)-yl)acetic acid]	13.4	superior to that of the compound BMS-202	
Cc1c(COc2ccc3c(n2)CCN(CCO)C3)cccc1-c1ccccc1 [I-D-17, 2-(2-((2-methyl-[1,1'-biphenyl]-3-yl)methoxy)-7,8-dihydro-1,6-naphthyridin-6(5H)-yl)ethan-1-ol]	70 to 1000		
OCCN1CCc2nc(OCc3cccc(-c4ccccc4)c3F)ccc2C1 [I-D-25, 2-(2-((2-fluoro-[1,1'-biphenyl]-3-yl)methoxy)-7,8-dihydro-1,6-naphthyridin-6(5H)-yl)ethan-1-ol]	70 to 1000		
Cc1c(COc2ccc3c(n2)CCN(CCO)C3)cccc1-c1ccccc1Cl [I-D-16, 2-(2-((2'-chloro-2-methyl-[1,1'-biphenyl]-3-yl)methoxy)-7,8-dihydro-1,6-naphthyridin-6(5H)-yl)ethan-1-ol]	70 to 1000		
Cc1c(-c2ccc3c(c2)CN(CC(=O)O)C3=O)cccc1-c1ccccc1F [I-A-4, 2-(5-(2'-Fluoro-2-methyl-[1,1'-biphenyl]-3-yl)-1-oxoisoindolin-2-yl)acetic acid]	> 1000		
OCCN1CCc2nc(OCc3cccc(-c4ccccc4F)c3F)ccc2C1 [I-D-22, 2-(2-((2,2'-difluoro-[1,1'-biphenyl]-3-yl)methoxy)-7,8-dihydro-1,6-naphthyridin-6(5H)-yl)ethan-1-ol]	10.5	superior to that of the compound BMS-202	
Cc1c(-c2ccc3c(c2)CN(CC(N)=O)C3=O)cccc1-c1ccccc1F [I-A-8, 2-(5-(2'-Fluoro-2-methyl-[1,1'-biphenyl]-3-yl)-1-oxoisoindolin-2-yl)acetamide]	70 to 1000		
Cc1c(-c2ccc3c(c2)CN(CCC(=O)O)C3=O)cccc1-c1ccccc1F [I-A-5, 3-(5-(2'-Fluoro-2-methyl-[1,1'-biphenyl]-3-yl)-1-oxoisoindolin-2-yl)propanoic acid]	> 1000		
Cc1c(-c2ccc3c(c2)CN(C(C)C(=O)O)C3=O)cccc1-c1ccccc1F (stereo not shown) [I-A-6, 2-(5-(2'-Fluoro-2-methyl-[1,1'-biphenyl]-3-yl)-1-oxoisoindolin-2-yl)propanoic acid]	> 1000		
Cc1c(COc2ccc3c(n2)N(C)CN(CC(=O)O)C3)cccc1-c1cccc(OCCCN2CC[C@@H](O)C2)c1C [I-E-4, (R)-2-(7-((3'-(3-(3-hydroxypyrrolidin-1-yl)propoxy)-2,2'-dimethyl-[1,1'-biphenyl]-3-yl)methoxy)-1-methyl-1,4-dihydropyrido[2,3-d]pyrimidin-3(2H)-yl)acetic acid]	58.5	superior to that of the compound BMS-202	
Cc1c(-c2ccc3c(n2)CCN(CC(=O)O)C3)cccc1-c1ccccc1F [I-B-2, 2-(2-(2'-Fluoro-2-methyl-[1,1'-biphenyl]-3-yl)-7,8-dihydro-1,6-naphthyridin-6(5H)-yl)acetic acid]	19	superior to that of the compound BMS-202	
OCCN1CCc2nc(OCc3cccc(-c4ccccc4Cl)c3F)ccc2C1 [I-D-24, 2-(2-((2'-chloro-2-fluoro-[1,1'-biphenyl]-3-yl)methoxy)-7,8-dihydro-1,6-naphthyridin-6(5H)-yl)ethan-1-ol]	70 to 1000		≥ 2000
Cc1ccccc1-c1cccc(COc2ccc3c(n2)CCN(CCO)C3)c1F [I-D-23, 2-(2-((2-fluoro-2'-methyl-[1,1'-biphenyl]-3-yl)methoxy)-7,8-dihydro-1,6-naphthyridin-6(5H)-yl)ethan-1-ol]	70 to 1000		
Cc1c(-c2ccc3c(n2)CCN(CCO)C3)cccc1-c1ccccc1F [I-B-3, 2-(2-(2'-Fluoro-2-methyl-[1,1'-biphenyl]-3-yl)-7,8-dihydro-1,6-naphthyridin-6(5H)-yl)ethan-1-ol]	70 to 1000		
Cc1c(COc2ccc3c(n2)CCN(CCO)C3)cccc1-c1ccccc1F [I-D-14, 2-(2-((2'-fluoro-2-methyl-[1,1'-biphenyl]-3-yl)methoxy)-7,8-dihydro-1,6-naphthyridin-6(5H)-yl)ethan-1-ol]	15.8	superior to that of the compound BMS-202	
OCCN1CCc2nc(OCc3cccc(-c4ccccc4Cl)c3Cl)ccc2C1 [I-D-20, 2-(2-((2,2'-dichloro-[1,1'-biphenyl]-3-yl)methoxy)-7,8-dihydro-1,6-naphthyridin-6(5H)-yl)ethan-1-ol]	70 to 1000		
Cc1c(-c2ccc3c(c2)CN(CCO)C3=O)cccc1-c1ccccc1F [I-A-7, 5-(2'-Fluoro-2-methyl-[1,1'-biphenyl]-3-yl)-2-(2-hydroxyethyl)isoindo 1-1-one]	70 to 1000		
